Legend:
Format in all cases: in vivo
Spodoptera littoralis = assay: Example B9: Spodoptera littoralis (Egyptian cotton leaf worm), cotton leaf discs, L1 larvae; details: foliar, 72 h, application rate of 200 ppm, 3 days after infestation, read-out: control in at least one of the three categories (mortality, anti-feedant effect, or growth inhibition)
Procedure: Example B9: Spodoptera littoralis (Egyptian Cotton Leaf Worm)
Cotton leaf discs were placed onto agar in 24-well microtiter plates and sprayed with aqueous test solutions prepared from 10,000 ppm DMSO stock solutions. After drying the leaf discs were infested with five L1 larvae. The samples were assessed for mortality, anti-feeding effect, and growth inhibition in comparison to untreated samples 3 days after infestation. Control of Spodoptera littoralis by a test sample is given when at least one of the categories mortality, anti-feedant effect, and growth inhibition is higher than the untreated sample.

Chilo suppressalis = assay: Example B1: Chilo suppressalis (striped rice stemborer), artificial diet, L2 larvae; details: 144 h, application rate of 200 ppm, 6 days after infestation, read-out: control in at least one of the three categories (mortality, anti-feedant effect, or growth inhibition)
Procedure: Example B1: Chilo suppressalis (Striped Rice Stemborer)
24-well microtiter plates with artificial diet were treated with aqueous test solutions prepared from 10,000 ppm DMSO stock solutions by pipetting. After drying, the plates were infested with L2 larvae (6-8 per well). The samples were assessed for mortality, anti-feeding effect, and growth inhibition in comparison to untreated samples 6 days after infestation. Control of Chilo suppressalis by a test sample is given when at least one of the categories mortality, anti-feedant effect, and growth inhibition is higher than the untreated sample.

Plutella xylostella = assay: Example B8: Plutella xylostella (diamond back moth), artificial diet 24-well, eggs; details: 192 h, application rate of 200 ppm, 8 days after infestation, read-out: effect in at least one of the two categories (mortality or growth inhibition)
Procedure: Example B8: Plutella xylostella (Diamond Back Moth)
24-well microtiter plates with artificial diet were treated with aqueous test solutions prepared from 10,000 ppm DMSO stock solutions by pipetting. After drying, Plutella eggs were pipetted through a plastic stencil onto a gel blotting paper and the plate was closed with it. The samples were assessed for mortality and growth inhibition in comparison to untreated samples 8 days after infestation.
The following compounds gave an effect of at least 80% in at least one of the two categories (mortality or growth inhibition) at an application rate of 200 ppm: […]

Row | SMILES | percent control (mortality, anti-feedant effect or growth inhibition) at 200 ppm (Spodoptera littoralis) [%] | percent control (mortality, anti-feedant effect or growth inhibition) at 200 ppm (Chilo suppressalis) [%] | percent effect (mortality or growth inhibition) at 200 ppm (Plutella xylostella) [%]
1 | COc1cc(OC)c(NC(=O)N[C@@H](C)c2ncnn2-c2ncccn2)cc1Cl [Example P387, 1-(5-chloro-2,4-dimethoxy-phenyl)-3-[(1S)-1-(2-pyrimidin-2-yl-1,2,4-triazol-3-yl)ethyl]urea] | ≥ 80 |  | 
2 | C[C@H](NC(=O)Nc1cc(Br)c(F)cc1F)c1ncnn1-c1ncccn1 [Example P343, 1-(5-bromo-2,4-difluoro-phenyl)-3-[(1S)-1-(2-pyrimidin-2-yl-1,2,4-triazol-3-yl)ethyl]urea] | ≥ 80 | ≥ 80 | 
3 | C[C@H](NC(=O)Nc1cc(Br)c(C(F)(F)F)cc1F)c1ncnn1-c1ncccn1 [Example P350, 1-[5-bromo-2-fluoro-4-(trifluoromethyl)phenyl]-3-[(1S)-1-(2-pyrimidin-2-yl-1,2,4-triazol-3-yl)ethyl]urea] | ≥ 80 | ≥ 80 | 
4 | CC(NC(=O)Nc1cnc(Br)cc1Br)c1nccnc1-c1ncccn1 (centres unmarked) [Example P242, 1-(4,6-dibromo-3-pyridyl)-3-[1-(3-pyrimidin-2-ylpyrazin-2-yl)ethyl]urea] | ≥ 80 | ≥ 80 | 
5 | C[C@H](NC(=O)Nc1ccc(Cl)c(Cl)c1Cl)c1ncnn1-c1ncccn1 [Example P95, 1-[(1S)-1-(2-pyrimidin-2-yl-1,2,4-triazol-3-yl)ethyl]-3-(2,3,4-trichlorophenyl)urea] | ≥ 80 |  | 
6 | COc1cc(F)c(F)cc1NC(=O)N[C@@H](C)c1ncnn1-c1ncccn1 [Example P383, 1-(4,5-difluoro-2-methoxy-phenyl)-3-[(1S)-1-(2-pyrimidin-2-yl-1,2,4-triazol-3-yl)ethyl]urea] | ≥ 80 | ≥ 80 | 
7 | C[C@H](NC(=O)Nc1cc(Cl)c(Br)cc1F)c1ncnn1-c1ncccn1 [Example P373, 1-(4-bromo-5-chloro-2-fluoro-phenyl)-3-[(1S)-1-(2-pyrimidin-2-yl-1,2,4-triazol-3-yl)ethyl]urea] | ≥ 80 | ≥ 80 | 
8 | COc1cc(NC(=O)N[C@@H](C)c2ncnn2-c2ncccn2)c(Br)cc1Br [Example P200, 1-(2,4-dibromo-5-methoxy-phenyl)-3-[(1S)-1-(2-pyrimidin-2-yl-1,2,4-triazol-3-yl)ethyl]urea] |  | ≥ 80 | ≥ 80
9 | C[C@H](NC(=O)Nc1cc2c(cc1Cl)OCO2)c1ncnn1-c1ncccn1 [Example P370, 1-(6-chloro-1,3-benzodioxol-5-yl)-3-[(1S)-1-(2-pyrimidin-2-yl-1,2,4-triazol-3-yl)ethyl]urea] | ≥ 80 | ≥ 80 | 
10 | CC(NC(=O)Nc1cnc(Br)cc1Br)c1nccnc1-n1nccn1 (centres unmarked) [Example P262, 1-(4,6-dibromo-3-pyridyl)-3-[1-[3-(triazol-2-yl)pyrazin-2-yl]ethyl]urea] | ≥ 80 |  | 
11 | C[C@H](NC(=O)Nc1ncc(C(F)(F)F)cc1Cl)c1ncnn1-c1ncccn1 [Example P25, 1-[3-chloro-5-(trifluoromethyl)-2-pyridyl]-3-[(1S)-1-(2-pyrimidin-2-yl-1,2,4-triazol-3-yl)ethyl]urea] |  | ≥ 80 | ≥ 80
12 | CC(NC(=O)Nc1cc(C(F)(F)F)c(Cl)cc1Br)c1nccnc1-n1nccn1 (centres unmarked) [Example P260, 1-[2-bromo-4-chloro-5-(trifluoromethyl)phenyl]-3-[1-[3-(triazol-2-yl)pyrazin-2-yl]ethyl]urea] |  | ≥ 80 | ≥ 80
13 | C[C@H](NC(=O)N1CCc2ccc(C(F)(F)F)cc21)c1ncnn1-c1ncccn1 [Example P50, N-[(1S)-1-(2-pyrimidin-2-yl-1,2,4-triazol-3-yl)ethyl]-6-(trifluoromethyl)indoline-1-carboxamide] |  | ≥ 80 | ≥ 80
14 | C[C@H](NC(=O)Nc1c(Cl)cc(Cl)c(OC(F)(F)C(F)F)c1I)c1nccnc1-c1ccc(C#N)cn1 [Example P275, 1-[(1S)-1-[3-(5-cyano-2-pyridyl)pyrazin-2-yl]ethyl]-3-[4,6-dichloro-2-iodo-3-(1,1,2,2-tetrafluoroethoxy)phenyl]urea] |  | ≥ 80 | ≥ 80
15 | C[C@H](NC(=O)Nc1cc(F)c(Cl)cc1I)c1ncnn1-c1ncccn1 [Example P376, 1-(4-chloro-5-fluoro-2-iodo-phenyl)-3-[(1S)-1-(2-pyrimidin-2-yl-1,2,4-triazol-3-yl)ethyl]urea] |  | ≥ 80 | ≥ 80
16 | CC(NC(=S)Nc1cc(C(F)(F)F)cc(C(F)(F)F)c1)c1ncnn1-c1ncccn1 (centres unmarked) [Example P3, 1-[3,5-bis(trifluoromethyl)phenyl]-3-[1-(2-pyrimidin-2-yl-1,2,4-triazol-3-yl)ethyl]thiourea] | ≥ 80 |  | 
17 | C[C@H](NC(=O)Nc1cc(OC(F)(F)C(F)F)c(Cl)cc1Cl)c1nccnc1-c1ccc(C#N)cn1 [Example P245, 1-[(1S)-1-[3-(5-cyano-2-pyridyl)pyrazin-2-yl]ethyl]-3-[2,4-dichloro-5-(1,1,2,2-tetrafluoroethoxy)phenyl]urea] |  | ≥ 80 | ≥ 80
18 | C[C@H](NC(=O)Nc1ccc(C(F)(F)F)c(Cl)c1)c1nccnc1-c1ccc(C#N)cn1 [Example P9, 1-[3-chloro-4-(trifluoromethyl)phenyl]-3-[(1S)-1-[3-(5-cyano-2-pyridyl)pyrazin-2-yl]ethyl]urea] |  | ≥ 80 | ≥ 80
19 | C[C@H](NC(=O)Nc1cc(Cl)c(OC(F)(F)C(F)Br)cc1Cl)c1ncnn1-c1ncccn1 (stereo partly drawn) [Example P197, 1-[4-(2-bromo-1,1,2-trifluoro-ethoxy)-2,5-dichloro-phenyl]-3-[(1S)-1-(2-pyrimidin-2-yl-1,2,4-triazol-3-yl)ethyl]urea] | ≥ 80 |  | 
20 | C[C@H](NC(=O)N1CCc2cc(Br)ccc21)c1ncnn1-c1ncccn1 [Example P102, 5-bromo-N-[(1S)-1-(2-pyrimidin-2-yl-1,2,4-triazol-3-yl)ethyl]indoline-1-carboxamide] | ≥ 80 |  | 
21 | C[C@H](NC(=O)Nc1ccccc1OC(F)F)c1ncnn1-c1ncccn1 [Example P107, 1-[2-(difluoromethoxy)phenyl]-3-[(1S)-1-(2-pyrimidin-2-yl-1,2,4-triazol-3-yl)ethyl]urea] |  | ≥ 80 | ≥ 80
22 | C[C@H](NC(=O)Nc1ccc(Cl)cc1Oc1ccc(Cl)cc1)c1ncnn1-c1ncccn1 [Example P51, 1-[4-chloro-2-(4-chlorophenoxy)phenyl]-3-[(1S)-1-(2-pyrimidin-2-yl-1,2,4-triazol-3-yl)ethyl]urea] |  | ≥ 80 | ≥ 80
